Patent US7579338B2, “Methods and compositions for treating atheroma, tumors and other neoplastic tissues” (Pharmacyclics, Inc., priority 1999, dated 2009)

Legend:
[1] = tested on: MES-SA cells; assay: Response of MES-SA cells to ionizing radiation, microtiter plate format (MTT); assay type: cell-based, human
Experimental: The response of MES-SA cells to ionizing radiation was studied using the microtiter plate format to confirm radiation sensitization potential. This assay is used to assess rapidly the effects of irradiation under a variety of conditions.
10A. Materials and Methods. MES-SA cells were incubated at 37° C. and allowed to adhere to 96-well microtiter plates (1000 cells per well) overnight in 160 μL McCoys 5A containing 10% FBS (Gibco-BRL) and ca. 2% penicillin/streptomycin solution (Sigma). BSO or media (20 μL) was added, respectively to test and control wells, 24 h prior to irradiation. Metallotexaphyrin complex (up to 100 μM) was added to the test wells to give a final volume of 200 μL, 18-24 h prior to irradiation. Plates were irradiated using a 137Cs irradiator (Model 40 Gammacell, J. L. Shepherd & Assoc., San Fernando, Calif.) at a dose rate of 33.25 Rad/min. A lead brick (2″ diameter) was positioned to protect a column of wells (no. 11) from ionizing radiation. Plate absorbances were normalized to shielded wells to allow plate-to-plate comparison. […] Reversing the position of texaphyrin complex-containing wells had no effect on assay outcome. Medium was exchanged immediately after irradiation, and plates were incubated an additional 120 h prior to analysis for viability using the MTT assay (as described, e.g., in Example 5).

[2] = tested on: MES-SA human uterine cells; assay: Proliferation of MES-SA cells with ascorbate and texaphyrin (MTT); assay type: cell-based; settings: for cytotoxic effect of texaphyrin with 333 μM ascorbate: texaphyrin 25-100 μM, 5 hours exposure, MTT after 72 hours; for cytotoxic effect of texaphyrin at lower concentrations of ascorbate: ascorbate below 333 μM (111 μM and 62.5 μM for GdTex); for cytotoxic/inhibitory effect of texaphyrin in the absence of ascorbate: no ascorbate, texaphyrin up to 100 μM
Experimental: The proliferation of MES-SA human uterine cells (Harker, W. G.; MacKintosh, F. R.; Sikic, B. I. Cancer Res. 1983, 43, 4943-4950) grown in RPMI-1640 medium in the presence of ascorbate or complex was used to assess the formation of hydrogen peroxide under cell culture conditions.
5A. Materials and Methods. MES-SA cells were allowed to adhere to (4) 96-well microtiter plates (4000 cells per well) overnight in 160 μL RPMI medium. Stock ascorbate 3.0 mM in medium (80 μL) was serially diluted (1:3) in rows B through F (discarding the final 80 μL). Row G was used for no-ascorbate control. Stock solutions of GdTex (2 mM in 5% mannitol) diluted in medium and 5% mannitol were prepared and added to the plates to give a final volume of 200 μL in all wells. Columns 2 and 3 contained 100 μM GdTex; columns 4 and 5 contained 75 μM GdTex, columns 6 and 7 contained 50 μM GdTex; columns 8 and 9 contained 25 μM GdTex; and columns 10 and 11 contained no GdTex (all concentrations final). Final mannitol concentration was 0.25% in all wells. The plates were incubated at 37 C under a 5% CO2/95% air atmosphere. Complex-containing medium was exchanged for fresh medium after 5 hours, and plates were incubated an additional 72 hours prior to analysis for viability using the tetrazolium dye, MTT (Mosmann, T. J. Immunol. Methods 1983, 65, 55-63). In brief, 20 μL MTT dye (Sigma Chemical, St. Louis, Mo., catalogue no. M 2128, 5 mg/mL solution in phosphate buffered saline) was added to cells in media to give a final volume of 200 μL. The plates were incubated at 37° C. for ca. 2 hours, whereupon the media was removed and isopropyl alcohol (100 μL/well) was added. Plates were vortexed for ca. 3 minutes to dissolve MTT formazan, then read on a microplate reader at 560-650 nm. Plate absorbances were normalized to wells containing neither ascorbate nor GdTex to allow plate to plate comparison. Data for each concentration of GdTex and ascorbate is the average of eight wells.
The proliferation of MES-SA human uterine cells grown in RPMI-1640 medium in the presence of ascorbate and LuTex was used to assess the production of hydrogen peroxide under cell culture conditions following the protocol outlined in the previous example.

[3] = tested on: animal tumor models; settings: reported in the literature; cited from earlier work
[4] = Oxidation of NADPH under approximate physiologic conditions (HPLC, NADP+ formation); assay type: biochemical; settings: substrate NADPH, pH 7.5, Michaelis-Menton fit, triplicate; for Km: read-out: KM (dissociation or Michaelis constant), NADPH oxidation
Experimental: The following stock solutions were prepared: • Stock NADPH (Sigma N 7505) (prepared fresh daily): 12.2 mg/(10 mL. 833.4 mg/mmol)=1.46 mM • Stock GdTex: 5.76 mg/(10.0 mL water. 1148 mg/mmol)=501.7 μM • Stock 4× Buffer: 200 mM HEPES, pH 7.5; 400 mM NaCl; 0.4 mM EDTA • Stock LuTex: 5.02 mg/(10.0 mL water×1166 mg/mmol)=431 μM These were combined to form the reaction mixtures analyzed by HPLC, for example: • 250 μL 4× Buffer, 250 μL NADPH Stock, 427 μL Water, 72.7 μL GdTex Stock • 250 μL 4× Buffer, 250 μL NADPH Stock, 457.7 μL Water, 42.3 μL LuTex Stock The HPLC Method employed was as follows: 1. HPLC Operating Parameters: • System—HPLC system capable of delivering gradient mobile phase • Detector wavelength—260 nm • Injection Volume—20 μL • Pressure—ca: 2000 psi • Column Temperature—40° C. • Column—Nucleogel DEAE 60-7 125×4 mm 2. Mobile Phase: • Solution A—0.75 M KH2PO4, pH 3.8 • Solution B—0.016 M KH2PO4, pH 3.8
A reaction mixture was prepared containing NADPH, water and sufficient buffer to maintain the solution at pH 7.5. Texaphyrin, 0.1 molar equivalent to the NADPH, was added to this reaction mixture, vortexed briefly, and then the solution placed in the HPLC sampler for immediate injection. Further injections were made at appropriate time points, whereupon the integrated peak areas of both NADPH and NADP^+ were measured and used to calculate the extent of reaction at a given time point.
Provided that the amount of texaphyrin was sufficiently low relative to substrate, the percentage of NADP^+ generated by the reaction plotted against time initially gave a straight line. (For LuTex, it was necessary to drop the catalyst concentration to ca. 0.05 equivalent.) The slope of initial time points (eg., plotting as mM concentration vs time in hours) provided a rate which was used as a point in a saturation (Michaelis-Menton) plot. This process was repeated at various concentrations of NADPH. Data (in triplicate) was fitted to the Michaelis-Menton equation (initial reaction velocity/catalyst concentration)=(kcat×substrate concentration)/(KM+substrate concentration), where substrate is NADPH, catalyst is texaphyrin complex, kcat is the first-order rate constant for the catalyst, and KM is the dissociation (or Michaelis) constant for the catalyst/substrate complex. For GdTex, kcat=0.049±0.003 min^−1 and KM=1.69±0.17 mM. For LuTex, kcat=0.119±0.011 min^−1 and KM=0.56±0.20 mM.
1B. By following the procedure of Example 1A using a single concentration of NADPH and employing 0.1 equivalent of test compound, the results illustrated in FIG. 16 were obtained.

Row | SMILES | radiation sensitization, texaphyrin substituted for GdTex ([1]; corresponding experiments, Example 10B) | cytotoxic effect of texaphyrin with 333 μM ascorbate [2] | cytotoxic effect of texaphyrin at lower concentrations of ascorbate [2] | cytotoxic/inhibitory effect of texaphyrin in the absence of ascorbate [2] | radiation sensitization in animal tumor models [3] | kcat (first-order rate constant for the catalyst), NADPH oxidation [4] [s⁻¹] | Km [4] [µM] | radiation sensitization ([1]; 100 μM GdTex, no BSO (FIG. 17A)) | effect on apparent viability after irradiation with BSO ([1]; all cells pre-incubated with 100 μM BSO (FIG. 17B)) | effect on apparent viability after irradiation ([1]; up to 50 μM GdTex for 24 h prior to irradiation, no BSO, adjusted for GdTex alone (FIG. 17A))
1 | CC(=O)[O-].CC(=O)[O-].CCc1c(CC)c2cc3nc(cnc4cc(OCCOCCOCCOC)c(OCCOCCOCCOC)cc4ncc4nc(cc1[n-]2)C(CCCO)=C4C)C(C)=C3CCCO.O.[Lu+3] [LuTex, motexafin lutetium] | sensitization was not obtained | dose-response was observed | No inhibitory effect | no inhibitory effect | did not possess similar radiation sensitization properties | 0.00198 ± 0.000183 | 560 ± 200 |  |  | 
2 | CC(=O)[O-].CC(=O)[O-].CCc1c(CC)c2cc3nc(cnc4cc(OCCOCCOCCOC)c(OCCOCCOCCOC)cc4ncc4nc(cc1[n-]2)C(CCCO)=C4C)C(C)=C3CCCO.O.[Gd+3] [GdTex, motexafin gadolinium] |  | complete cytotoxicity | dose-response was observed | no cytotoxic effect | enhance the efficacy of radiation | 0.000817 ± 5e-05 | 1690 ± 170 | Radiation sensitization became more significant | greater GdTex-dependent decrease in apparent viability | small effect on apparent viability
